Measurements reported in US20240041042A1, “1-(PYRIDYL)-5-AZINYLPYRAZOLE DERIVATIVES, AND THEIR USE FOR CONTROL OF UNDESIRED PLANT GROWTH” (Bayer Aktiengesellschaft, priority 2020, published 2024).
Like-named read-outs stand apart in the source and are kept apart here.

Key:
Type in all cases: in vivo
[1] = tested on: Verconica persica (VERPE); test: Pre-emergence herbicidal action against VERPE
How it was run: (§1)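 Greenhouse pot trial: seeds sown, soil-covered, sprayed before emergence with compound in water (0.5% additive; 600 l/ha; ≤320 g/ha). Scoring visual, ~3 weeks, 0–100% scale vs untreated.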

[2] = tested on: Amaranthus retroflexus (AMARE); test: Pre-emergence herbicidal action against AMARE; conditions: visual scoring after about 3 weeks vs untreated controls
How it was run: as §1

[3] = tested on: Alopecurus myosuroides (ALOMY); test: Post-emergence herbicidal action against ALOMY; conditions: visual rating about 3 weeks after treatment vs untreated controls (100% = plants have died, 0% = like control plants)
How it was run: (§2)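 Doses of 320 g/ha or lower, suffixes a, b and c marking different dosages, were applied post-emergence at the one-leaf stage in 600 l/ha water with 0.5% additive. Damage was assessed visually after about 3 weeks in the greenhouse.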

[4] = tested on: Alopecurus myosuroides (ALOMY); test: Pre-emergence herbicidal action against ALOMY; conditions: scored visually after about 3 weeks, 100% = plants have died
How it was run: as §1

[5] = tested on: Oryza sativa (ORYSA); conditions: crop plant compatibility, effect in comparison to untreated controls
How it was run: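 Foliar application at the one-leaf stage: WP/EC formulation, 0.5% additive, 600 l/ha water. Greenhouse-grown in sandy loam. Endpoint is visual % injury relative to untreated controls at about 3 weeks.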

[6] = tested on: Digitaria sanguinalis (DIGSA); test: Post-emergence herbicidal action against DIGSA; conditions: visual rating about 3 weeks after treatment
How it was run: as §2

[7] = tested on: Digitaria sanguinalis (DIGSA); test: Pre-emergence herbicidal action against DIGSA
How it was run: as §1

[8] = 80 g/ha, visual scoring after about 3 weeks vs untreated controls

In the case of `COC(=O)CNC(=O)[C@@H](C)Oc1nn(-c2ccccn2)c(-c2cncc(F)c2)c1Br` [Example I-187], the “Pre-emergence action against VERPE in %” value ([1]; dosage 80 g/ha) is reported as 90%, the “Pre-emergence action against VERPE in %” value ([1]; dosage 320 g/ha) is reported as 90% and the “Pre-emergence action against AMARE in %” value ([2]; 80 g/ha) is reported as 80%. The “Pre-emergence action against AMARE in %” value ([2]; 320 g/ha) was 100%, the “Post-emergence action against ALOMY in %” value ([3]; 320 g/ha) was 90% and the “Pre-emergence action against ALOMY” value ([4]; 80 g/ha) was 90%. The “Pre-emergence action against ALOMY” value ([4]; 320 g/ha) was 100%, the “Post-emergence action against ORYSA in %” value ([5]; 80 g/ha) was 10% and the “Post-emergence action against ORYSA in %” value ([5]; 320 g/ha) was 20%.

With `CCOC(=O)COc1nn(-c2ccccn2)c(-c2ccc(F)nc2)c1Cl` [Example I-85] the “Pre-emergence action against VERPE in %” value ([1]; dosage 80 g/ha) was 100%, the “Pre-emergence action against VERPE in %” value ([1]; dosage 320 g/ha) was 100% and the “Pre-emergence action against AMARE in %” value ([2]; 80 g/ha) was 90%. The “Pre-emergence action against AMARE in %” value ([2]; 320 g/ha) was 100%, the “Post-emergence action against ALOMY in %” value ([3]; 320 g/ha) was 100% and the “Pre-emergence action against ALOMY” value ([4]; 80 g/ha) was 80%. For the same compound, the “Pre-emergence action against ALOMY” value ([4]; 320 g/ha) was 90%.

With `COC(=O)[C@@H](C)Oc1nn(-c2ncccc2F)c(-c2ccc(F)nc2)c1C1CC1` [Example I-307] the “Pre-emergence action against VERPE in %” value ([1]; dosage 80 g/ha) was 90%, the “Pre-emergence action against VERPE in %” value ([1]; dosage 320 g/ha) was 100% and the “Pre-emergence action against AMARE in %” value ([2]; 80 g/ha) was 100%. For the same compound, the “Pre-emergence action against AMARE in %” value ([2]; 320 g/ha) was 100%, the “Post-emergence action against ALOMY in %” value ([3]; 80 g/ha) was 100% and the “Post-emergence action against ALOMY in %” value ([3]; 320 g/ha) was 100%. The “Pre-emergence action against ALOMY” value ([4]; 80 g/ha) was 80% and the “Pre-emergence action against ALOMY” value ([4]; 320 g/ha) was 90%.

For `COC(=O)C(C)NC(=O)[C@@H](C)Oc1nn(-c2ccccn2)c(-c2cncc(F)c2)c1Br` (stereo partly shown) [Example I-190], the “Pre-emergence action against VERPE in %” value ([1]; dosage 80 g/ha) was 80%, the “Pre-emergence action against VERPE in %” value ([1]; dosage 320 g/ha) was 100% and the “Pre-emergence action against AMARE in %” value ([2]; 80 g/ha) was 90%. The “Pre-emergence action against AMARE in %” value ([2]; 320 g/ha) was 100%, the “Post-emergence action against ALOMY in %” value ([3]; 80 g/ha) was 80% and the “Post-emergence action against ALOMY in %” value ([3]; 320 g/ha) was 100%. The “Pre-emergence action against ALOMY” value ([4]; 80 g/ha) was 80%, the “Pre-emergence action against ALOMY” value ([4]; 320 g/ha) was 90% and the “Post-emergence action against ORYSA in %” value ([5]; 80 g/ha) was 20%.

For `CCOC(=O)[C@@H](C)Oc1nn(-c2ncccc2F)c(-c2ccc(F)nc2)c1C1CC1` [Example I-375], the “Pre-emergence action against VERPE in %” value ([1]; dosage 80 g/ha) was 100%, the “Pre-emergence action against VERPE in %” value ([1]; dosage 320 g/ha) was 100% and the “Pre-emergence action against AMARE in %” value ([2]; 80 g/ha) was 100%. For the same compound, the “Pre-emergence action against AMARE in %” value ([2]; 320 g/ha) was 100%, the “Post-emergence action against ALOMY in %” value ([3]; 80 g/ha) was 100% and the “Post-emergence action against ALOMY in %” value ([3]; 320 g/ha) was 100%. The “Pre-emergence action against ALOMY” value ([4]; 80 g/ha) was 80% and the “Pre-emergence action against ALOMY” value ([4]; 320 g/ha) was 90%.

For `CCOC(=O)[C@@H](C)Oc1nn(-c2ccccn2)c(-c2cncc(F)c2)c1Cl` [Example I-184], the “Pre-emergence action against VERPE in %” value ([1]; dosage 80 g/ha) was 90%, the “Pre-emergence action against VERPE in %” value ([1]; dosage 320 g/ha) was 100% and the “Pre-emergence action against AMARE in %” value ([2]; 80 g/ha) was 100%. The “Pre-emergence action against AMARE in %” value ([2]; 320 g/ha) was 100%, the “Post-emergence action against ALOMY in %” value ([3]; 80 g/ha) was 80% and the “Post-emergence action against ALOMY in %” value ([3]; 320 g/ha) was 90%. For the same compound, the “Pre-emergence action against ALOMY” value ([4]; 80 g/ha) was 90% and the “Pre-emergence action against ALOMY” value ([4]; 320 g/ha) was 100%.

With `COC(=O)C(C)COC(=O)[C@@H](C)Oc1nn(-c2ccccn2)c(-c2cncc(F)c2)c1Br` (stereo partly shown) [Example I-188] the “Pre-emergence action against VERPE in %” value ([1]; dosage 80 g/ha) was 100%, the “Pre-emergence action against VERPE in %” value ([1]; dosage 320 g/ha) was 100% and the “Pre-emergence action against AMARE in %” value ([2]; 80 g/ha) was 100%. For the same compound, the “Pre-emergence action against AMARE in %” value ([2]; 320 g/ha) was 100%, the “Post-emergence action against ALOMY in %” value ([3]; 80 g/ha) was 80% and the “Post-emergence action against ALOMY in %” value ([3]; 320 g/ha) was 90%. For the same compound, the “Pre-emergence action against ALOMY” value ([4]; 80 g/ha) was 90%, the “Pre-emergence action against ALOMY” value ([4]; 320 g/ha) was 100% and the “Post-emergence action against ORYSA in %” value ([5]; 80 g/ha) was 20%.

`O=C(O)COc1nn(-c2ncccc2F)c(-c2ccc(F)nc2)c1Br` [Example I-08] was tested, and the “Pre-emergence action against VERPE in %” value ([1]; dosage 320 g/ha) was 100%, the “Pre-emergence action against AMARE in %” value ([2]; 80 g/ha) was 100% and the “Pre-emergence action against AMARE in %” value ([2]; 320 g/ha) was 100%. The “Post-emergence action against ALOMY in %” value ([3]; 80 g/ha) was 100%, the “Post-emergence action against ALOMY in %” value ([3]; 320 g/ha) was 100% and the “Post-emergence action against DIGSA in %” value ([6]; 320 g/ha) was 90%. The “Pre-emergence action against DIGSA in %” value [7, 8] was 100%, the “Pre-emergence action against DIGSA in %” value ([7]; dosage 320 g/ha) was 100% and the “Pre-emergence action against ALOMY” value ([4]; 80 g/ha) was 100%. For the same compound, the “Pre-emergence action against ALOMY” value ([4]; 320 g/ha) was 100%.

For `C[C@@H](Oc1nn(-c2ccccn2)c(-c2cncc(F)c2)c1Cl)C(=O)O` [Example I-218], the “Pre-emergence action against VERPE in %” value ([1]; dosage 80 g/ha) was 90%, the “Pre-emergence action against VERPE in %” value ([1]; dosage 320 g/ha) was 100% and the “Pre-emergence action against AMARE in %” value ([2]; 80 g/ha) was 100%. For the same compound, the “Pre-emergence action against AMARE in %” value ([2]; 320 g/ha) was 100%, the “Post-emergence action against ALOMY in %” value ([3]; 320 g/ha) was 90% and the “Pre-emergence action against ALOMY” value ([4]; 80 g/ha) was 90%. The “Pre-emergence action against ALOMY” value ([4]; 320 g/ha) was 90%.

With `COC(=O)C(C)COC(=O)C(C)Oc1nn(-c2ccccn2)c(-c2ccc(F)nc2)c1Cl` (stereo not shown) [Example I-291] the “Pre-emergence action against VERPE in %” value ([1]; dosage 320 g/ha) was 80%, the “Pre-emergence action against AMARE in %” value ([2]; 80 g/ha) was 80% and the “Pre-emergence action against AMARE in %” value ([2]; 320 g/ha) was 100%. The “Post-emergence action against ALOMY in %” value ([3]; 80 g/ha) was 80%, the “Post-emergence action against ALOMY in %” value ([3]; 320 g/ha) was 80% and the “Pre-emergence action against DIGSA in %” value [7, 8] was 100%. The “Pre-emergence action against DIGSA in %” value ([7]; dosage 320 g/ha) was 100%, the “Pre-emergence action against ALOMY” value ([4]; 80 g/ha) was 100% and the “Pre-emergence action against ALOMY” value ([4]; 320 g/ha) was 100%. The “Post-emergence action against ORYSA in %” value ([5]; 80 g/ha) was 0%.

With `COC(=O)COc1nn(-c2nc(F)ccc2F)c(-c2cncc(F)c2)c1C1CC1` [Example I-164] the “Pre-emergence action against VERPE in %” value ([1]; dosage 80 g/ha) was 90%, the “Pre-emergence action against VERPE in %” value ([1]; dosage 320 g/ha) was 100% and the “Pre-emergence action against AMARE in %” value ([2]; 80 g/ha) was 100%. The “Pre-emergence action against AMARE in %” value ([2]; 320 g/ha) was 100%, the “Post-emergence action against ALOMY in %” value ([3]; 80 g/ha) was 100% and the “Post-emergence action against ALOMY in %” value ([3]; 320 g/ha) was 100%. For the same compound, the “Post-emergence action against DIGSA in %” value ([6]; 80 g/ha) was 80%, the “Post-emergence action against DIGSA in %” value ([6]; 320 g/ha) was 90% and the “Pre-emergence action against DIGSA in %” value [7, 8] was 90%. For the same compound, the “Pre-emergence action against DIGSA in %” value ([7]; dosage 320 g/ha) was 100%, the “Pre-emergence action against ALOMY” value ([4]; 80 g/ha) was 100% and the “Pre-emergence action against ALOMY” value ([4]; 320 g/ha) was 100%.
